Experimental data as given in PubChem BioAssay AID330 (DTP/NCI, 2004).
“And” between values parts separate entries of the source, which are not always exact repeats. Identical values can stand only once. Toxic doses and inconclusive results are not listed.

Test system: P388 leukemia ip, CD2F1 mice, survival T/C
Test: NCI In Vivo Anticancer Drug Screen. Data for tumor model P388 Leukemia (intraperitoneal) in CD2F1 (CDF1) mice
Settings: endpoint: median survival time, higher = longer survival
Outline: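 Mice carrying the transplanted tumor received test compound or vehicle. Survival was recorded in each group, and the value is the treated-group measurement divided by that of the vehicle-treated control group.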

[1] = dose: 60.0 mg/kg/injection, schedule: Q01DX005 (ip), vehicle: saline with Tween-80
[2] = dose: 120.0 mg/kg/injection, schedule: Q01DX005 (ip), vehicle: saline with Tween-80
[3] = dose: 50.0 mg/kg/injection, schedule: Q04DX002 (ip), vehicle: saline with Tween-80
[4] = dose: 100.0 mg/kg/injection, schedule: Q04DX002 (ip), vehicle: saline with Tween-80
[5] = dose: 200.0 mg/kg/injection, schedule: Q04DX002 (ip), vehicle: saline with Tween-80
[6] = dose: 50.0 mg/kg/injection, schedule: Q01DX009 (ip), vehicle: saline
[7] = dose: 100.0 mg/kg/injection, schedule: Q01DX009 (ip), vehicle: saline
[8] = dose: 240.0 mg/kg/injection, schedule: Q01DX005 (ip), vehicle: saline with Tween-80
[9] = dose: 100.0 mg/kg/injection, schedule: Q04DX003 (ip), vehicle: Klucel (hydroxypropylcellulose) (HPC)
[10] = dose: 50.0 mg/kg/injection, schedule: Q01DX009 (ip), vehicle: saline with Tween-80
[11] = dose: 100.0 mg/kg/injection, schedule: Q01DX009 (ip), vehicle: saline with Tween-80
[12] = dose: 200.0 mg/kg/injection, schedule: Q01DX009 (ip), vehicle: saline with Tween-80
[13] = dose: 50.0 mg/kg/injection, schedule: Q01DX005 (ip), vehicle: Klucel (hydroxypropylcellulose) (HPC)

In the case of `Cn1cc(-n2[nH]c(=O)n(-c3ccccc3)c2=O)c(=O)n(C)c1=O`, the T/C (dose: 50.0 mg/kg/injection, schedule: Q01DX009 (ip), vehicle: Klucel (hydroxypropylcellulose) (HPC)) is reported as 101 % of control, the T/C (dose: 100.0 mg/kg/injection, schedule: Q01DX009 (ip), vehicle: Klucel (hydroxypropylcellulose) (HPC)) is reported as 101 % of control and the T/C (dose: 200.0 mg/kg/injection, schedule: Q01DX009 (ip), vehicle: Klucel (hydroxypropylcellulose) (HPC)) is reported as 96 % of control.
With `NC1=C(O)C(=O)C(c2ccc3c(c2)OCO3)O1` (stereo not drawn) the T/C (dose: 60.0 mg/kg/injection, schedule: Q01DX005 (ip), vehicle: Klucel (hydroxypropylcellulose) (HPC)) was 92 % of control, the T/C (dose: 120.0 mg/kg/injection, schedule: Q01DX005 (ip), vehicle: Klucel (hydroxypropylcellulose) (HPC)) was 95 % of control and the T/C (dose: 240.0 mg/kg/injection, schedule: Q01DX005 (ip), vehicle: Klucel (hydroxypropylcellulose) (HPC)) was 91 % of control.
For `C=C1[C@@H](O)C[C@@H]2C[C@@]3(C)[C@H](C(C)(C)C[C@@H]3O)C12O` (stereo partly drawn), the T/C (dose: 3.75 mg/kg/injection, schedule: Q01DX005 (ip), vehicle: saline) was 98 % of control, the T/C (dose: 7.5 mg/kg/injection, schedule: Q01DX005 (ip), vehicle: saline) was 100 % of control and the T/C (dose: 15.0 mg/kg/injection, schedule: Q01DX005 (ip), vehicle: saline) was 98 % of control.
With `CCN(CC)C(=O)c1c(C(=O)OC)c(C)n(NC(=O)c2cccc(C)c2)c1C` the T/C [1] was 90 % of control and the T/C [2] was 87 % of control.
With `OC(Cc1cnc2ccccc2c1)(c1ccccc1)c1ccccc1` the T/C [3] was 111 % of control, the T/C [4] was 96 % of control and the T/C [5] was 88 % of control.
For `CC1(C)NC(C(=O)O)Cc2c1[nH]c1ccccc21` (stereo not drawn), the T/C (dose: 25.0 mg/kg/injection, schedule: Q01DX009 (ip), vehicle: saline) was 102 % of control, the T/C [6] was 91 % of control and the T/C [7] was 94 % of control.
In the case of `O=C1C(c2ccccc2)=C(c2ccccc2)C(=O)N1CCN1CCCC1`, the T/C [1] is reported as 105 % of control, the T/C [2] is reported as 110 % of control and the T/C [8] is reported as 108 % of control.
In the case of `CC(C)CC(=O)CC(=O)C(C)(C)C.CC(C)CC(=O)CC(=O)C(C)(C)C.[Cu]`, the T/C (dose: 25.0 mg/kg/injection, schedule: Q04DX003 (ip), vehicle: Klucel (hydroxypropylcellulose) (HPC)) is reported as 100 % of control, the T/C (dose: 50.0 mg/kg/injection, schedule: Q04DX003 (ip), vehicle: Klucel (hydroxypropylcellulose) (HPC)) is reported as 101 % of control and the T/C [9] is reported as 98 % of control and 106 % of control.
With `COC(=O)CNP(=O)(NCC(=O)OC)N(CCCl)CCCl` the T/C (dose: 30.0 mg/kg/injection, schedule: Q01DX005 (ip), vehicle: saline) was 102 % of control, the T/C (dose: 60.0 mg/kg/injection, schedule: Q01DX005 (ip), vehicle: saline) was 115 % of control and the T/C (dose: 120.0 mg/kg/injection, schedule: Q01DX005 (ip), vehicle: saline) was 153 % of control and 161 % of control. The T/C (dose: 240.0 mg/kg/injection, schedule: Q01DX005 (ip), vehicle: saline) was 161 % of control and 238 % of control.
`CSc1nc2c(nnn2C2OC(CO)C(O)C(O)C2O)c(=O)[nH]1` (stereo not drawn) was tested, and the T/C [1] was 100 % of control, the T/C [2] was 97 % of control and the T/C [8] was 102 % of control.
In the case of `CC1(C)CC2(C)OC2C2(C1)N=NC(=Nc1ccccc1)O2` (stereo not drawn), the T/C [10] is reported as 105 % of control and 92 % of control, the T/C [11] is reported as 120 % of control and 97 % of control and the T/C [12] is reported as 108 % of control.
For `CC(C)(C)c1ccc(SS(=O)(=O)c2ccc(C(C)(C)C)cc2)cc1`, the T/C (dose: 100.0 mg/kg/injection, schedule: Q01DX001 (ip), vehicle: saline with Tween-80) was 98 % of control, the T/C [9] was 97 % of control and the T/C (dose: 200.0 mg/kg/injection, schedule: Q01DX001 (ip), vehicle: saline with Tween-80) was 100 % of control. For the same molecule, the T/C (dose: 200.0 mg/kg/injection, schedule: Q04DX003 (ip), vehicle: Klucel (hydroxypropylcellulose) (HPC)) was 104 % of control, the T/C (dose: 400.0 mg/kg/injection, schedule: Q01DX001 (ip), vehicle: saline with Tween-80) was 97 % of control and the T/C (dose: 400.0 mg/kg/injection, schedule: Q04DX003 (ip), vehicle: Klucel (hydroxypropylcellulose) (HPC)) was 105 % of control.
In the case of `CSCCC(NC(=O)C(F)(F)F)C(=O)O` (stereo not drawn), the T/C [10] is reported as 106 % of control, the T/C [11] is reported as 94 % of control and the T/C [12] is reported as 94 % of control.
For `CCCCC([Se])=NCCC(C)C`, the T/C (dose: 6.25 mg/kg/injection, schedule: Q01DX009 (ip), vehicle: Klucel (hydroxypropylcellulose) (HPC)) was 105 % of control, the T/C (dose: 12.5 mg/kg/injection, schedule: Q01DX009 (ip), vehicle: Klucel (hydroxypropylcellulose) (HPC)) was 108 % of control and the T/C (dose: 25.0 mg/kg/injection, schedule: Q01DX009 (ip), vehicle: Klucel (hydroxypropylcellulose) (HPC)) was 93 % of control.
In the case of `CP(=O)(NN)c1ccccc1` (stereo not drawn), the T/C (dose: 12.5 mg/kg/injection, schedule: Q01DX009 (ip), vehicle: water) is reported as 89 % of control, the T/C (dose: 25.0 mg/kg/injection, schedule: Q01DX009 (ip), vehicle: water) is reported as 96 % of control and the T/C (dose: 50.0 mg/kg/injection, schedule: Q01DX009 (ip), vehicle: water) is reported as 101 % of control.
With `COc1ccc(/C=N\N=C(/[O-])c2ccccc2O)cc1.COc1ccc(/C=N\N=C(/[O-])c2ccccc2O)cc1.[Ni+2]` the T/C [3] was 93 % of control, the T/C [4] was 86 % of control and the T/C [5] was 88 % of control.
For `CCCCCCNC(=O)CNC(=O)C=[N+]=[N-]`, the T/C [10] was 101 % of control, the T/C [11] was 101 % of control and the T/C [12] was 97 % of control.
For `CC[As](CC)SCC1OC(OC(C)=O)C(OC(C)=O)C(OC(C)=O)C1OC(C)=O` (stereo not drawn), the T/C (dose: 50.0 mg/kg/injection, schedule: Q01DX009 (ip), vehicle: saline + alcohol) was 99 % of control, the T/C [6] was 110 % of control and the T/C (dose: 100.0 mg/kg/injection, schedule: Q01DX009 (ip), vehicle: saline + alcohol) was 100 % of control. For the same molecule, the T/C [7] was 113 % of control and the T/C (dose: 200.0 mg/kg/injection, schedule: Q01DX009 (ip), vehicle: saline + alcohol) was 109 % of control.
For `C=CCC(C(=O)OC)c1ccccc1` (stereo not drawn), the T/C (dose: 0.4 mg/kg/injection, schedule: Q01DX009 (ip), vehicle: saline with Tween-80) was 99 % of control, the T/C (dose: 0.8 mg/kg/injection, schedule: Q01DX009 (ip), vehicle: saline with Tween-80) was 98 % of control and the T/C (dose: 1.6 mg/kg/injection, schedule: Q01DX009 (ip), vehicle: saline with Tween-80) was 104 % of control.
For `C[C@H](CS)C(=O)N1c2ccccc2C[C@H]1C(=O)O`, the T/C [1] was 101 % of control, the T/C [2] was 104 % of control and the T/C [8] was 113 % of control.
For `Cc1noc(C)c1C(=O)CCCCC(=O)O`, the T/C [1] was 102 % of control, the T/C [2] was 95 % of control and the T/C [8] was 104 % of control.
In the case of `CCCCc1ccc2nccc(N/N=C/c3ccc(OC)c4ccccc34)c2c1`, the T/C (dose: 3.12 mg/kg/injection, schedule: Q01DX005 (ip), vehicle: Klucel (hydroxypropylcellulose) (HPC)) is reported as 100 % of control, the T/C (dose: 6.25 mg/kg/injection, schedule: Q01DX005 (ip), vehicle: Klucel (hydroxypropylcellulose) (HPC)) is reported as 100 % of control and the T/C (dose: 12.5 mg/kg/injection, schedule: Q01DX005 (ip), vehicle: Klucel (hydroxypropylcellulose) (HPC)) is reported as 93 % of control and 94 % of control. For the same molecule, the T/C [13] was 87 % of control.
In the case of `CC(=C\C1=CC(C)(C)CCC1(C)C)/C=C(C)/C=C/C=[N+](\[O-])C1C(C2COC(C)(C)O2)OC2OC(C)(C)OC21` (stereo not drawn), the T/C (dose: 12.5 mg/kg/injection, schedule: Q01DX005 (ip), vehicle: DMSO) is reported as 103 % of control, the T/C (dose: 25.0 mg/kg/injection, schedule: Q01DX005 (ip), vehicle: DMSO) is reported as 119 % of control and the T/C (dose: 50.0 mg/kg/injection, schedule: Q01DX005 (ip), vehicle: DMSO) is reported as 100 % of control and 113 % of control. For the same molecule, the T/C (dose: 100.0 mg/kg/injection, schedule: Q01DX005 (ip), vehicle: DMSO) was 106 % of control and the T/C (dose: 200.0 mg/kg/injection, schedule: Q01DX005 (ip), vehicle: DMSO) was 103 % of control.
For `O=C(O)/C=N/OCc1cc2c(cc1Cl)OCO2`, the T/C (dose: 50.0 mg/kg/injection, schedule: Q04DX003 (ip), vehicle: saline sonified) was 100 % of control, the T/C (dose: 100.0 mg/kg/injection, schedule: Q04DX003 (ip), vehicle: saline sonified) was 100 % of control and the T/C (dose: 200.0 mg/kg/injection, schedule: Q04DX003 (ip), vehicle: saline sonified) was 105 % of control.
For `O=[N+]([O-])c1ccc2c(c1)C(N1CCOCC1)c1ccccc1-2` (stereo not drawn), the T/C [13] was 98 % of control, the T/C (dose: 100.0 mg/kg/injection, schedule: Q01DX005 (ip), vehicle: Klucel (hydroxypropylcellulose) (HPC)) was 98 % of control and the T/C (dose: 200.0 mg/kg/injection, schedule: Q01DX005 (ip), vehicle: Klucel (hydroxypropylcellulose) (HPC)) was 100 % of control.
